Assay results as given in a melting point compilation (Tetko et al.; mined from patent text by program, amines drawn as free bases though some values may be those of a salt).

Row | melting point [°C] | SMILES
1 | 181 to 182 | COc1cc(CC(=O)O)ccc1SCc1sc(-c2ccc(C(F)(F)F)cc2)nc1C
2 | 215 to 220 | NC(=O)N1CCCN(NC(=O)c2cc(=O)c(O)c[nH]2)C1=O
3 | 125 to 130 | Cn1ccnc1Sc1ccc(Nc2c(C#N)cnc3cc(N4CCC(N5CCCC5)CC4)ccc23)cc1Cl
4 | 265 to 267 | O=c1c2c(O)cccc2[nH]c2c([N+](=O)[O-])ccc(Cl)c12
5 | 158 to 160 | O=C(Nc1ccccc1Oc1ccc(Cl)cc1)C1CCN(C(=O)c2ccccc2)CC1
6 | 112 to 114 | O=C1CC(C(F)(F)F)CC(=O)N1c1cc(O)c(Cl)cc1F
7 | 240 to 241 | CN(C)c1nc2cc(NC(=O)c3c(C(=O)N4CCC4)cnn3C)ccn2n1
8 | 162 to 164 | COc1cc2c(cc1OC)CN(CCc1ccc(-c3ccccc3)cc1)CC2
9 | 191 to 194 | Cc1cc(C)nc(NC(=O)NS(=O)(=O)c2c(Cl)c(C)nn2C)n1
10 | 97 to 99 | N#CC(C#N)c1cccc(Br)c1
11 | 248 to 250 | Fc1ccc(Nc2ncnc3cnc(N4CCN(c5ccncc5)CC4)nc23)cc1Cl
12 | 184 to 186 | CC(C)c1ccc(C(=O)NCCCCN2CCN(C(c3ccccc3)c3ccccc3)CC2)c(O)n1
13 | 171 to 173 | COC(=O)[C@H]1C[C@H](C(=O)O)Nc2cc(Br)cc(Br)c21 (relative stereo)
14 | 96 to 99 | Brc1c[nH]c(CN2CCCC2)c1
15 | 135 | COc1cc(C(=O)N2CCCCc3cc(Cl)ccc32)ccc1OCc1ccccc1Cl
16 | 219 to 220 | CC(O)c1cc2c(n1C)C(=O)c1cccc(O)c1C2=O (centres undefined)
17 | 258 to 259 | COc1ccc(/C=C/C(=O)Nc2ccc(C(=O)O)cc2)cc1OC
18 | 201 to 202 | Cc1nnc(-c2ccc3occ(-c4ccc(C#N)cc4)c3c2)o1
19 | 139 to 140 | Cc1nc(-c2ccc(C(F)(F)F)cc2)sc1CSc1ccc2c(c1)CC(C(=O)O)CO2 (centres undefined)
20 | 73 to 74 | CCc1c(CC(C)(C)C(=O)O)ccc2c1OCO2
21 | 196 | CS(=O)(=O)C(=C1CN(C(c2ccccc2)c2ccccc2)C1)c1ccccc1O
22 | 199 to 200 | CC(C)(C)NC(=O)N1CCN(c2ccc3ncc(Br)n3n2)CC1
23 | 129 to 130 | CCCOC(=O)C(Cc1ccccc1)(Cn1cncn1)c1ccccc1OC (centres undefined)

Row | melting point [°C] | SMILES
24 | 135 to 138 | CC1=C(C)C(=O)N(OC(=S)N(C)C)C1=O
25 | 155 to 156 | OCc1c(CO)c2sc3ccccc3n2c1-c1ccc(F)cc1
26 | 231 to 233 | O=C1COc2ccc(C3=CN=C(c4ccccc4)SC3c3ccccc3)cc2N1 (centres undefined)
27 | 132 to 133 | Cc1cc(Cl)cc(C#N)c1
28 | 240 to 241 | O=c1oc2c(c(O)c1C1(c3ccccc3)CCC1)CCCCCC2
29 | 120 | COc1cc2c(cc1OC)C(C(S)(C#N)CCC(=O)OCCC(C)C)=NCC2 (centres undefined)
30 | 222 to 224 | Cc1cc(NC(=O)c2cc(F)cc(N(C3CN(C(c4ccc(Cl)cc4)c4ccc(Cl)cc4)C3)S(C)(=O)=O)c2)no1
31 | 83 to 85 | N#CCNCNCC#N
32 | 116 to 117 | O=C1SC(=Cc2cccs2)C(=O)N1CCCCSc1cccc2nccn12
33 | 110 to 113 | Cc1noc(NS(=O)(=O)c2ccc(Cl)c(Cl)c2Cl)c1Br
34 | 112 to 113 | O=C1N(c2ccc(Cl)c(Cl)c2)CCON1c1ccccc1
35 | 130 to 132 | CC(N=Cc1ccc(O)cc1)C1CCCCC1 (single isomer, unassigned; (+))
36 | 70 | OC(COC1CCCCO1)(Cn1cncn1)c1ccc(Cl)cc1 (centres undefined)
37 | 122 to 124 | Cn1cc(SC(F)(F)F)c(=O)c(-c2cccc(C(F)(F)F)c2)c1
38 | 134 to 135 | CC(C)(C(=O)c1ccccc1)n1cncn1
39 | 146 to 148 | CC(=O)c1sc(N2CCN(CC3CC3(F)F)C2=O)nc1C (centres undefined)
40 | 148 to 150 | O=C(O)c1c(C=C2CC2)c2ccccc2n1Cc1cccc(C(F)(F)F)c1
41 | 140 | Nc1cc(Br)nc(Br)c1[N+](=O)[O-]
42 | 92 to 95 | Cc1ccc(F)c(C(C)Oc2ccc3nc(NC(=O)NCCN4CCOCC4)sc3c2)c1F (centres undefined)
43 | 60 to 62 | O=C(O)CCCC(=O)NCCCCCC1CCSS1 (centres undefined)
44 | 274 to 276 | CCOc1ccc(C2C(C(=O)c3ccc(C(C)C)cc3)=C(O)C(=O)N2c2ccc(C)nn2)cn1 (centres undefined)
45 | 283 to 284 | CCCc1nn(C)c2c(=O)[nH]c(-c3cc(S(=O)(=O)N4CCN(C)CC4)ccc3O)nc12
46 | 153 | CC#CCOc1ccc(SC(C(=O)NO)c2ccc(Br)cc2)cc1 (centres undefined)

Row | melting point [°C] | SMILES
47 | 96 to 103 | COC(=O)CCSCc1ccc2oc(-c3ccc4ccc(Cl)cc4n3)cc2c1
48 | 50 to 53 | O=[N+]([O-])c1cc(Cl)c(Br)cc1Cl
49 | 140 | Cc1ccnc(N2CCN(CCc3c(C)n4c5c(cc(C(O)C(C)C)cc35)CCC4)CC2)c1 (centres undefined)
50 | 128 | CC1(C)CC(n2cncc2C(=O)OC2CCCCC2)c2ccccc2O1 (centres undefined)
51 | 82 | Cc1cc(C)cc(N(CCCC(N)=O)Cc2ccc3nc(NCCCN4CCOCC4)n(Cc4cccc(Br)n4)c3c2)c1
52 | 219 to 220 | Cc1ccc(S(=O)(=O)Nc2cc3c(c(C(=O)O)c2)NC(c2ccccc2)CC3)cc1 (centres undefined)
53 | 125 | CCC(=O)Oc1cccc2c1C(=O)c1c(OC(=O)CC)cccc1C2C(=O)CC
54 | 110 to 112 | CC(C)Cc1nn(C)c(=O)c2cc(C(O)c3cccc4ccccc34)oc12 (centres undefined)
55 | 173 to 175 | O=C(SCCC(=O)N1c2ccccc2CC1C(=O)O)c1ccccc1 (centres undefined)
56 | 136 to 138 | COC(=O)C1Cc2ccccc2N1C(=O)C(C)(C)CSC(C)=O (centres undefined)
57 | 169 to 171 | NC(=O)CN1CCN(c2cccccc2=O)CC1
58 | 57 | CNc1c(C)cc(N)c([N+](=O)[O-])c1C
59 | 132 | c1ccc(COc2ccc3c(C45CC6CC(CC(C6)C4)C5)noc3c2)cc1
60 | 167 | COc1ccccc1OCC(O)CN1CCCC(Cn2c(=O)[nH]c3ccc(Cl)cc32)C1 (centres undefined)
61 | 172 to 173 | CC(C)Oc1cc(Oc2ccc(S(C)(=O)=O)cn2)cc2cc(C3=NCC(CCO)S3)[nH]c12 (centres undefined)
62 | 157 to 158 | CCOc1nn(CCOc2nn(CC)cc2CC(=O)O)cc1C(=O)NCc1ccc(Cl)cc1Cl
63 | 165 | CCOc1c(CC)ccnc1C(=O)c1[nH]c2cc(Cl)ccc2c1CC(=O)O
64 | 65 to 67 | COC(=O)C[C@H]1C[C@@H](CCc2c(-c3ccc(F)cc3)c(-c3ccccc3)c(C(=O)NCc3ccccc3)n2C(C)C)OC(C)(C)O1
65 | 109 to 110 | CCCCCCCCCCCN=C=O
66 | 140 to 141 | Cc1cc(NC(=O)C(=O)N2C(C)COCC2C)cc(C)c1S(=O)(=O)C[N+](=O)[O-] (centres undefined)
67 | 194 | O=C(O)CCN1C(=O)c2cccc(NC(=O)c3ccc(Cl)s3)c2C1=O
68 | 165 | CCN(CC)c1ccc(S(=O)(=O)N2CC(O)CC2=O)cc1 (centres undefined)
69 | 172 | Cc1cc(O)nc(-c2cccc(-c3ccccc3)n2)n1

Row | melting point [°C] | SMILES
70 | 99 to 101 | CCCCCCCCCCCCCCCCCCOC1=CC(OCCCOc2ccc(C(C)(C)C)cc2)(N(CC(=O)O)CC(=O)O)CC=C1 (centres undefined)
71 | 123 to 125 | Cn1cc(C2=C(c3c4n(c5ccccc35)CCC3(CCCC3NC(=O)OC(C)(C)C)C4)C(=O)OC2=O)c2ccccc21 (centres undefined)
72 | 89 to 90 | CCOC(=O)Cn1c(=S)c2cc(Cl)ccc2n(Cc2ccc(Br)cc2F)c1=O
73 | 270 to 271 | CC(=O)Nc1ccccc1-c1nc(C)c(-c2cccnc2)[nH]1
74 | 192 to 193 | Cc1ccc(NC(=O)c2cccc(N3CCOCC3)c2)cc1N
75 | 195 to 197 | O=C(NNC(=O)c1occ(-c2ccccc2)c1-c1ccccc1)c1ccsc1
76 | 79 to 84 | COC(=O)c1cccc(/C=C/c2cccc(Br)c2)c1
77 | 189 to 191 | COc1nc(Nc2ccc(C)cc2[N+](=O)[O-])nc(OC)n1
78 | 148 to 150 | CC(=O)N1CCC1CC(=O)O (centres undefined)
79 | > 300 | CCCn1cc2c(C3C(=O)Nc4ccc(S(=O)(=O)N(C)C)cc43)nc(Cl)nc2n1 (centres undefined)
80 | 59 to 61 | O=Cc1cccc(-c2ccoc2)n1
81 | 174 | Cc1ccc(S(=O)(=O)N=c2ccc(C)cn2-c2cccc(C(F)(F)F)c2)cc1
82 | 122 to 123 | Cc1ccc(C(=O)c2ccc([N+](=O)[O-])cc2)cc1
83 | 160 | CC(C)(C)NC(=O)c1ncccc1CC(=O)C1CCC(C(=O)O)CC1 (centres undefined)
84 | 168 | COC(=O)Nc1nc2cc(C(c3cccc(Cl)c3)n3ccnc3)ccc2[nH]1 (centres undefined)
85 | 167 to 169 | Cn1nc(C2(OCC3CCN(C(=O)OC(C)(C)C)CC3)C=CC=CC2)c2ccccc2c1=O (centres undefined)
86 | 152 to 153 | O=C(CCCCc1ccccc1)N[C@H](Cc1ccc(C(F)(F)F)cc1)[C@@H](O)c1ccc(F)cc1 (racemic)
87 | 61 to 65 | COC(=O)Cc1ccc(OCCNC(=O)C2Cc3ccccc3N2S(=O)(=O)c2ccc(-c3cc(Cl)ccc3Cl)cc2)cc1 (centres undefined)
88 | 189 to 190 | O=C(O)COc1cc2c(c(Cl)c1Cl)C(=O)C(c1ccc(F)cc1)C2 (centres undefined)
89 | 84 to 87 | CCSc1cc(C)nc(SCC)c1NC(=O)CCCCCCCCSc1nc2ccccc2o1
90 | 102 | COc1ccc(CCN(C)CCCCc2ccc(NC(=O)c3cccc4c(=O)c5ccccc5oc34)cc2)cc1OC
91 | 192 to 195 | CNc1nc(C#N)c(-c2ccncc2)s1
92 | 105 to 106 | CCCCCCOc1cc(-c2cccc(N)c2)c(OCCCCCC)cc1-c1cccc(N)c1

Row | SMILES | melting point [°C]
93 | CC(C)N1CCC(Nc2cccnc2)CC1 | 101
94 | CC(=O)Oc1cccc2[nH]ccc12 | 97 to 98
95 | CN1Cc2c(C(=O)O)ncn2-c2ccccc2C1=O | 287
96 | Cc1nnc2n1-c1sc(C#Cc3ccccn3)cc1C(c1ccccc1Cl)=NC2 | 153 to 155
97 | CCCCCCCCCCN1C(=O)C2C3CCC(O3)C2C1=O (centres undefined) | 30 to 31
98 | O=C1NCN(c2ccccc2)C12CCN(CCCOc1ccc(F)cc1Cl)CC2 | 154 to 155
99 | CC(C)NC(=O)C(Cl)Cl | 45 to 48
